# Data reported in patent US5262417A, “Antibacterial quinolone compounds” (The Upjohn Company, priority 1991, dated 1993).
# Like-named read-outs stand apart in the source and are kept apart here.
# Assays:
# Assay in all cases: Minimum inhibitory concentration (MIC) by agar dilution
# Type in all cases: cell-based
# Enterobacter cloacae = tested on: Enterobacter cloacae
# Procedure: (§1) Briefly, MIC values are determined in unsupplemented Mueller Hinton Agar (MHA). The compounds tested are diluted serially into molten MHA at 47° C. The agar is poured into petri dishes and allowed to harden. The various bacteria used for testing are grown overnight on MHA at 35° C. and transferred to Trypticase soy broth (TSB) until a turbidity of 0.5 McFarland standard is obtained. The bacteria are diluted one to 20 in TSB and inoculated on the plates (1 μl using a Steers replicator).
# as §1, with “Compounds of this invention can also be tested for in vitro antimicrobial activity using standard testing procedures such as the determination of minimum inhibitory concentration (MIC) by agar dilution as described in "Methods for Dilution Antimicrobial Susceptibility Tests for Bacteria That Grow Aerobically" (MFT) published Jan. […] Briefly,” for “Briefly,”, “(1μl” for “(1 μl”
# Citerobacter freundii = tested on: Citerobacter freundii
# Procedure: as §1, with “The antibacterial activity of the compounds of Formula IC was determined by using standard testing procedures such as the determination of minimum inhibitory concentration (MIC) by agar dilution as described in "Methods for Dilution Antimicrobial Susceptibility Tests for Bacteria That Grow Aerobically" (MFT) published January 1983 by the National Committee for Clinical Laboratory Standards, 771 East Lancaster Avenue, Villanova, Pa. 19084, USA. Briefly,” for “Briefly,”
# (§2) Compounds of this invention can also be tested for in vitro antimicrobial activity using standard testing procedures such as the determination of minimum inhibitory concentration (MIC) by agar dilution as described in "Methods for Dilution Antimicrobial Susceptibility Tests for Bacteria That Grow Aerobically" (MFT) published Jan. 1983 by the National Committee for Clinical Laboratory Standards, 771 East Lancaster Avenue, Villanova, Penna. 19084, USA. Briefly, MIC values are determined in unsupplemented Mueller Hinton Agar (MHA). The compounds tested are diluted serially into molten MHA at 47° C. The agar is poured into petri dishes and allowed to harden. The various bacteria used for testing are grown overnight on MHA at 35° C. and transferred to Trypticase soy broth (TSB) until a turbidity of 0.5 McFarland standard is obtained. The bacteria are diluted one to 20 in TSB and inoculated on the plates (1μl using a Steers replicator). […] The MIC test results of selected of Formula B compounds of this invention are found in Tables B2-B9.
# Streptococcus faecalis = details: Enterococcus faecalis
# Procedure: (§3) The antibacterial activity of the compounds of Formula IC was determined by using standard testing procedures such as the determination of minimum inhibitory concentration (MIC) by agar dilution as described in "Methods for Dilution Antimicrobial Susceptibility Tests for Bacteria That Grow Aerobically" (MFT) published January 1983 by the National Committee for Clinical Laboratory Standards, 771 East Lancaster Avenue, Villanova, Pa. 19084, USA. Briefly, MIC values are determined in unsupplemented Mueller Hinton Agar (MHA). The compounds tested are diluted serially into molten MHA at 47° C. The agar is poured into petri dishes and allowed to harden. The various bacteria used for testing are grown overnight on MHA at 35° C. and transferred to Trypticase soy broth (TSB) until a turbidity of 0.5 McFarland standard is obtained. The bacteria are diluted one to 20 in TSB and inoculated on the plates (1 μl using a Steers replicator).
# as §2
# Staphylococcus aureus = details: Staphylococcus aureus
# Procedure: as §3, §2
# [1] = tested on: Acinetobacter calcoaceticus; details: Acinetobacter calcoaceticus
# Procedure: as §3, §2
# Streptococcus pyogenes = details: Streptococcus pyogenes
# Procedure: as §3, §2
# Escherichia coli = details: Escherichia coli
# Procedure: as §3, §2
# Proteus penneri = details: Proteus penneri
# Procedure: as §3, §2
# Klebsiella pneumoniae = tested on: Klebsiella pneumoniae
# Procedure: as §3, §2
# Streptococcus pneumoniae = details: Streptococcus pneumoniae
# Procedure: as §3, §2
# [2] = tested on: Staphylococcus epidermidis; details: 20 h
# Procedure: as §3, §2
# Pseudomonas aeruginosa = details: Pseudomonas aeruginosa
# Procedure: as §3, §2
# Serratia marcescens = details: 20 h, read-out: MINIMUM INHIBITORY CONCENTRATION
# Procedure: as §3, §2
# [3] = 20 h, read-out: MINIMUM INHIBITORY CONCENTRATION
# [4] = 20 h, read-out: MINIMUM INHIBITORY CONCENTRATION, Cult No. 6685, MHA
# [5] = 20 h, read-out: MINIMUM INHIBITORY CONCENTRATION, Cult No. 9213, MHA
# [6] = 20 h, read-out: MINIMUM INHIBITORY CONCENTRATION, Cult No. 9218, MHA
# [7] = 20 h, read-out: MINIMUM INHIBITORY CONCENTRATION, Cult No. 9271, MHA
# [8] = 20 h, read-out: MINIMUM INHIBITORY CONCENTRATION, Cult No. 12170, MHA
# [9] = 20 h, read-out: MINIMUM INHIBITORY CONCENTRATION, Cult No. 152, MHA
# [10] = 20 h, read-out: MINIMUM INHIBITORY CONCENTRATION, Cult No. 6674, MHA
# [11] = 20 h, read-out: MINIMUM INHIBITORY CONCENTRATION, Cult No. 9451, MHA
# [12] = 20 h, read-out: MINIMUM INHIBITORY CONCENTRATION, Cult No. 9855, MHA
# [13] = 20 h, read-out: MINIMUM INHIBITORY CONCENTRATION, Cult No. 9952, MHA
# [14] = 20 h, read-out: MINIMUM INHIBITORY CONCENTRATION, Cult No. 9679, MHA
# [15] = 20 h, read-out: MINIMUM INHIBITORY CONCENTRATION, Cult No. 41, MHA
# [16] = read-out: MINIMUM INHIBITORY CONCENTRATION
# [17] = 20 h, read-out: MINIMUM INHIBITORY CONCENTRATION, Cult No. 6676, MHA
# [18] = 20 h, read-out: MINIMUM INHIBITORY CONCENTRATION, Cult No. 9191, MHA
# [19] = 20 h, read-out: MINIMUM INHIBITORY CONCENTRATION, Cult No. 12120, MHA
Structure (SMILES),MIC (Enterobacter cloacae; [3]),MIC (Citerobacter freundii; [3]),MIC (Streptococcus faecalis; [3]),MIC (Staphylococcus aureus; [4]),MIC (Staphylococcus aureus; [5]),MIC (Staphylococcus aureus; [6]),MIC (Staphylococcus aureus; [7]),"MIC [1, 8]",MIC (Streptococcus pyogenes; [9]),MIC (Escherichia coli; [10]),MIC (Escherichia coli; [11]),MIC (Escherichia coli; [12]),MIC (Escherichia coli; [13]),MIC (Proteus penneri; [14]),MIC (Klebsiella pneumoniae; [3]),MIC (Streptococcus pneumoniae; [15]),"MIC [2, 16]",MIC (Pseudomonas aeruginosa; [17]),MIC (Pseudomonas aeruginosa; [18]),MIC (Serratia marcescens),also measured
"O=C(O)c1cn(C23CC(C2)C3)c2nc(N3CCNCC3)c(F)cc2c1=O [No. 4, 7-(1-piperazinyl)-1-(bicyclo[1.1.1]pent-1-yl)-1,4-dihydro-6-fluoro-4-oxo-1,8-naphthyridine-3-carboxylic acid]",0.06 µg/mL,0.06 µg/mL,2 µg/mL,0.25 µg/mL,0.5 µg/mL,0.5 µg/mL,0.5 µg/mL,0.25 µg/mL,2 µg/mL,0.06 µg/mL,0.06 µg/mL,0.06 µg/mL,0.06 µg/mL,0.5 µg/mL,0.125 µg/mL,2 µg/mL,0.25 µg/mL,2 µg/mL,1 µg/mL,0.25 µg/mL,MIC (Pseudomonas aeruginosa; [19]): 0.5 µg/mL
"O=C(O)c1cn(C23CC(C2)C3)c2c(F)c(N3CCC(O)C3)c(F)cc2c1=O (stereo not drawn) [No. 3, 7-(3-hydroxy-1-pyrrolidinyl)-1-(bicyclo[1.1.1]pent-1-yl)-1,4-dihydro-6,8-difluoro-4-oxo-3-quinolinecarboxylic acid]",0.25 µg/mL,0.25 µg/mL,1 µg/mL,0.06 µg/mL,0.125 µg/mL,0.125 µg/mL,0.125 µg/mL,0.25 µg/mL,2 µg/mL,0.25 µg/mL,0.25 µg/mL,0.25 µg/mL,0.125 µg/mL,0.5 µg/mL,0.5 µg/mL,1 µg/mL,0.125 µg/mL,2 µg/mL,2 µg/mL,1 µg/mL,MIC (Pseudomonas aeruginosa; [19]): 1 µg/mL
"CN1CCN(c2c(F)cc3c(=O)c(C(=O)O)cn(C45CC(C4)C5)c3c2F)CC1 [No. 99, 7-(4-methyl-1-piperazinyl)-1-(bicyclo[1.1.1]pent-1-yl)-1,4-dihydro-6,8-difluoro-4-oxo-3-quinolinecarboxylic acid]",0.25 µg/mL,0.25 µg/mL,4 µg/mL,0.5 µg/mL,0.5 µg/mL,0.5 µg/mL,0.5 µg/mL,0.125 µg/mL,2 µg/mL,0.25 µg/mL,0.255 µg/mL,0.25 µg/mL,0.125 µg/mL,2 µg/mL,0.5 µg/mL,2 µg/mL,0.5 µg/mL,4 µg/mL,4 µg/mL,1 µg/mL,MIC (Pseudomonas aeruginosa; [19]): 2 µg/mL
"C#CCn1cc(C(=O)O)c(=O)c2cc(F)c(N3CCNCC3)c(F)c21.CS(=O)(=O)O [C, (+,-)-6,8-difluoro-1,4-dihydro-4-oxo-7-(1-piperazinyl)-1-(2-propynyl)-3-quinolinecarboxylic acid methanesulfonate]",–,–,–,–,–,–,–,–,–,–,–,–,–,–,–,–,–,–,–,0.25 µg/mL,"MIC (Enterobacter cloacae; UC9382, 20 h, read-out: Minimum Inhibitory Concentration): 1 µg/mL; MIC (Citerobacter freundii; Citrobacter freundii, UC3507, 20 h, read-out: Minimum Inhibitory Concentration): 1 µg/mL; MIC (Streptococcus faecalis; UC9217, 20 h, read-out: Minimum Inhibitory Concentration): > 64 µg/mL; MIC (Staphylococcus aureus; UC6685, 20 h, read-out: Minimum Inhibitory Concentration, S. aureus UC 6685, Table CI): 32 µg/mL; MIC (Staphylococcus aureus; UC9213, 20 h, read-out: Minimum Inhibitory Concentration, S. aureus UC 9213, Table CI): 32 µg/mL; MIC (Staphylococcus aureus; UC9218, 20 h, read-out: Minimum Inhibitory Concentration, S. aureus UC 9218, Table CI): 32 µg/mL; MIC (Staphylococcus aureus; UC9271, 20 h, read-out: Minimum Inhibitory Concentration, S. aureus UC 9271, Table CI): 32 µg/mL; MIC ([1]; UC12170, 20 h, read-out: Minimum Inhibitory Concentration, A. calcoaceticus UC 12170, Table CI): 8 µg/mL; MIC (Streptococcus pyogenes; UC152, 20 h, read-out: Minimum Inhibitory Concentration, S. pyogenes UC 152, Table CI): 32 µg/mL; MIC (Escherichia coli; UC6674, 20 h, read-out: Minimum Inhibitory Concentration, E. coli UC 6674, Table CI): 1 µg/mL; MIC (Escherichia coli; UC9451, 20 h, read-out: Minimum Inhibitory Concentration, E. coli UC 9451, Table CI): 2 µg/mL; MIC (Escherichia coli; UC9855, 20 h, read-out: Minimum Inhibitory Concentration, E. coli UC 9855, Table CI): 2 µg/mL; MIC (Escherichia coli; UC9952, 20 h, read-out: Minimum Inhibitory Concentration, E. coli UC 9952, Table CI): 1 µg/mL; MIC (Proteus penneri; UC9679, 20 h, read-out: Minimum Inhibitory Concentration, P. penneri UC 9679, Table CI): 1 µg/mL; MIC (Klebsiella pneumoniae; UC12081, 20 h, read-out: Minimum Inhibitory Concentration): 2 µg/mL; MIC (Streptococcus pneumoniae; UC41, 20 h, read-out: Minimum Inhibitory Concentration, S. pneumoniae UC 41, Table CI): > 64 µg/mL; MIC ([2]; read-out: Minimum Inhibitory Concentration): 16 µg/mL; MIC (Pseudomonas aeruginosa; UC6676, 20 h, read-out: Minimum Inhibitory Concentration, Ps. aeruginosa UC 6676, Table CI): 16 µg/mL; MIC (Pseudomonas aeruginosa; UC9191, 20 h, read-out: Minimum Inhibitory Concentration, Ps. aeruginosa UC 9191, Table CI): 8 µg/mL; MIC (Pseudomonas aeruginosa; UC12120, 20 h, read-out: Minimum Inhibitory Concentration, Ps. aeruginosa UC 12120, Table CI): 8 µg/mL"
"O=C(O)c1cn(C23CC(C2)C3)c2cc(N3CCNCC3)c(F)cc2c1=O [No. 2, 1-(bicyclo[1.1.1]pent-1-yl)-1,4-dihydro-6-fluoro-4-oxo-7-(1-piperazinyl)-3-quinolinecarboxylic acid]",0.125 µg/mL,0.06 µg/mL,4 µg/mL,0.5 µg/mL,1 µg/mL,1 µg/mL,1 µg/mL,0.5 µg/mL,2 µg/mL,0.125 µg/mL,0.125 µg/mL,0.125 µg/mL,0.125 µg/mL,0.5 µg/mL,0.25 µg/mL,4 µg/mL,0.5 µg/mL,4 µg/mL,2 µg/mL,0.5 µg/mL,MIC (Pseudomonas aeruginosa; [19]): 1 µg/mL
